From EP2496579B1 (priority 2009, dated 2011)

What was measured:
[1] = target: human muscle-type nicotinic receptor (Homo sapiens, UniProt P02708+P07510+Q07001); assay: biochemical; format: binding; conditions: read-out: % inhibition, N muscle-type (h) (antagonist radioligand)
[2] = target: human α7 neuronal nicotinic receptor (Homo sapiens, UniProt P36544); assay: biochemical; format: binding; conditions: read-out: % inhibition, N neuronal alpha -BGTX-sensitive (alpha 7) (antagonist radioligand)
human α7 neuronal nicotinic receptor, sequence (P36544 23-502): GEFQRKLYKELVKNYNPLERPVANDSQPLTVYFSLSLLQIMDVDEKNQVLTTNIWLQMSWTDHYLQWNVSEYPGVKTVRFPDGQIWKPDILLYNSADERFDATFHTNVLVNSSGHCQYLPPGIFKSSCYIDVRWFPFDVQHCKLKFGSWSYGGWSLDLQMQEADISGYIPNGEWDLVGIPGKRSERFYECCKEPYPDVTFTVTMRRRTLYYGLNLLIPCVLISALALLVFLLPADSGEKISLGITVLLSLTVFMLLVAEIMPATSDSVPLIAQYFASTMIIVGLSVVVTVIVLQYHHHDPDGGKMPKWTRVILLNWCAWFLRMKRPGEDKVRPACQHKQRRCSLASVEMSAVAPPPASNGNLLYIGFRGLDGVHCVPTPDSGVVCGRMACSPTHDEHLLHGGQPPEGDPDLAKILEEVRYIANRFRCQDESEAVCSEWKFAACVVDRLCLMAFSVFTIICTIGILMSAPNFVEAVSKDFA

[3] = target: human α4β2 neuronal nicotinic receptor (Homo sapiens, UniProt P17787+P43681); assay: Neuronal nicotinic receptor (α-BGTX-insensitive) (agonist radioligand) binding assay; conditions: test compound at 1 µmole; 0.6 nM [3H]cytisine; transfected SH-SY5Y cells; inhibition of control radioligand specific binding; one single experiment; read-out: % inhibition, N neuronal alpha-BGTX-insensitive (alpha4beta 2) (agonist radioligand)
human α4β2 neuronal nicotinic receptor, sequence (P43681 29-627 limits assumed): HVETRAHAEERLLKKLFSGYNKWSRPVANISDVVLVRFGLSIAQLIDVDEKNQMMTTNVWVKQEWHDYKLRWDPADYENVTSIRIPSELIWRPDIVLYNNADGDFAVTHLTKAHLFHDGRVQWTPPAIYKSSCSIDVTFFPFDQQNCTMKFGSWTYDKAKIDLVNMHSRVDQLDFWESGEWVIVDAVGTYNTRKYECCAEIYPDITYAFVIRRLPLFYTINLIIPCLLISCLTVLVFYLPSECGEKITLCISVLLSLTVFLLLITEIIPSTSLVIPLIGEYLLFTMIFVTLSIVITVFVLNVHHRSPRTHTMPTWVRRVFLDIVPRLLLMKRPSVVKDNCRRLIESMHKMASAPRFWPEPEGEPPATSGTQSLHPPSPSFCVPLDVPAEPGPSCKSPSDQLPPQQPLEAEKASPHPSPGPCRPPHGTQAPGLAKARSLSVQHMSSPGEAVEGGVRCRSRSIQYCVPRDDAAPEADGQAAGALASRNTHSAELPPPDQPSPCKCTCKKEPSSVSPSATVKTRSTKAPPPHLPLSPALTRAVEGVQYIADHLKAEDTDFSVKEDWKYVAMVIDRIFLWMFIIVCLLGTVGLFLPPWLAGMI
human α4β2 neuronal nicotinic receptor, sequence (P17787 26-502): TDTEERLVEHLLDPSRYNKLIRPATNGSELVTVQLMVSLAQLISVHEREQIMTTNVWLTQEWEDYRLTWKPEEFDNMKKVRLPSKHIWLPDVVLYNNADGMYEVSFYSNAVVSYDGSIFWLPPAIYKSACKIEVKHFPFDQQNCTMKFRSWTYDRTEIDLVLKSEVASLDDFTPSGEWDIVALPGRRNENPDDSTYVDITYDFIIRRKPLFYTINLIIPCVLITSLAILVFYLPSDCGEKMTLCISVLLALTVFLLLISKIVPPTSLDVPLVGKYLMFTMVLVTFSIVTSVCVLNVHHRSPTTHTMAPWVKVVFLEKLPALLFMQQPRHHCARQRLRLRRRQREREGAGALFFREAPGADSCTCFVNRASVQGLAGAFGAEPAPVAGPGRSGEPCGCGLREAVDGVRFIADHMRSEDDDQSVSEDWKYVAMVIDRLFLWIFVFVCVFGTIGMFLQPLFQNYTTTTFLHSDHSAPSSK
Excerpt: (§1) Four illustrative compounds of this invention have each been tested at a concentration of 1 µmole in a series of 6 binding assays for various […], including dopaminic receptors, neuronal nicotinic receptors and muscular nicotinic receptors. Details of each binding assay procedure are given below.
Neuronal nicotinic receptor (α-BGTX-insensitive) (agonists radioligand):
The purpose is to evaluate the affinity of compounds for the human α4β2 neuronal nicotinic receptor expressed in transfected SH-SY5Y cells, determined in a radioligand binding assay according to Gopalakrishnan et al in J. Pharmacol. Exp. Ther. (1996) 276:289. The experimental protocol is as follows. Cell membrane homogenates (30 µg protein) are incubated for 120 min at 4°C with 0.6 nM [^3H]cytisine in the absence or presence of the test compound in a buffer containing 50 mM Tris-HCl (pH 7.4), 120 mM NaCl, 5 mM KCI, 2.5 mM CaCl2 and 1 mM MgCl2. Nonspecific binding is determined in the presence of 10 µM nicotine bitartrate. Following incubation, the samples are filtered rapidly under vacuum through glass fiber filters (GF/B, Packard) presoaked with 0.3% PEI and rinsed several times with ice-cold 50 mM Tris-HCl using a 96-sample cell harvester (Unifilter, Packard). The filters are dried then counted for radioactivity in a scintillation counter (Topcount, Packard) using a scintillation cocktail (Microscint 0, Packard). The results are expressed as a percent inhibition of the control radioligand specific binding. The standard reference compound is nicotine bitartrate, which is tested in each experiment at several concentrations to obtain a competition curve from which its IC50 is calculated, and from which the % inhibition at 1 µM as indicated in the following table is obtained.

[4] = target: T1, human dopamine D1 receptor (Homo sapiens, UniProt P21728); assay: Human dopamine D1 receptor (antagonist radioligand) binding assay; conditions: test compound at 1 µmole; 0.3 nM [3H]SCH 23390; transfected CHO cells; inhibition of control radioligand specific binding; one single experiment
T1 construct: expressed in transfected cells; host or cells: CHO cells (membrane homogenates)
T1 sequence (P21728 whole entry): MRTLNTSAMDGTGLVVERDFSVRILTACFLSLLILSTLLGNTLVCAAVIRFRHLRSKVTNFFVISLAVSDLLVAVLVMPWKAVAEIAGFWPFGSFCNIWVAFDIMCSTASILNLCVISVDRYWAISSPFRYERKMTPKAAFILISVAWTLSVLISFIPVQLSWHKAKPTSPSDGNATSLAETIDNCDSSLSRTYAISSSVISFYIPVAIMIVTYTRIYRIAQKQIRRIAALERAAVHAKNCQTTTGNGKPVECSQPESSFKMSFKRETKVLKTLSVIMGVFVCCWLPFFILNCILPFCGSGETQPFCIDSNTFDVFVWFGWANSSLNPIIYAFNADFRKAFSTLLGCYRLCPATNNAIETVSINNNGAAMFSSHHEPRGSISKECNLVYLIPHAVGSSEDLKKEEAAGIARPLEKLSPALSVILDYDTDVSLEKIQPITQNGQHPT
Excerpt: as §1
Human dopamine D1 receptor (antagonist radioligand):
The purpose is to evaluate the affinity of compounds for the human dopamine D1 receptor in transfected CHO cells determined in a radioligand binding assay according to Zhou et al in Nature (1990) 347:76. The experimental protocol is as follows. Cell membrane homogenates (48 µg protein) are incubated for 60 minutes at 22°C with 0.3 nM [^3H]SCH 23390 in the absence or presence of the test compound in a buffer containing 50 mM Tris-HCl (pH 7.4), 5 mM KCI, 5 mM MgCl2, 1.5 mM CaCl2 and 5 mM EDTA. Non-specific binding is determined in the presence of 1 µM SCH 23390. […] The filters are dried then counted for radioactivity in a scintillation counter (Topcount, Packard) using a scintillation cocktail (Microscint 0, Packard). The results are expressed as a percent inhibition of the control radioligand specific binding. […]

[5] = target: T2, agonist site of the human dopamine D5 receptor (Homo sapiens, UniProt P21918); assay: Human dopamine D5 receptor (agonist radioligand) binding assay; conditions: test compound at 1 µmole; 7.5 nM [3H]dopamine; transfected GH4 cells; inhibition of control radioligand specific binding; one single experiment
T2 construct: expressed in transfected cells; host or cells: GH4 cells (membrane homogenates)
T2 sequence (P21918 whole entry): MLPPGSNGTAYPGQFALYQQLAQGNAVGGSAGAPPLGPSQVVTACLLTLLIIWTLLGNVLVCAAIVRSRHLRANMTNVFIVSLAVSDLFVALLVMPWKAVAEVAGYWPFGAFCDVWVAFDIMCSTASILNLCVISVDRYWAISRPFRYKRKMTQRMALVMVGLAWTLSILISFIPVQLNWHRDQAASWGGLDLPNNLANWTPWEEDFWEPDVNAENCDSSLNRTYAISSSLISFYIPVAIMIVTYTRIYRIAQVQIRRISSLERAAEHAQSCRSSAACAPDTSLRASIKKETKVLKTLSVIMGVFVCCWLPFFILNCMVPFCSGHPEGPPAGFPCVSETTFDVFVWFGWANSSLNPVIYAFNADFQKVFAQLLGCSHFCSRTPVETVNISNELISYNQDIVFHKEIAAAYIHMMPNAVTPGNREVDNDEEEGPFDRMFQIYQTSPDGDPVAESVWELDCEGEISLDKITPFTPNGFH
Excerpt: as §1
Human dopamine D5 receptor (agonist radioligand):
The purpose is to evaluate the affinity of compounds for the agonist site of the human dopamine D5 receptor in transfected GH4 cells determined in a radioligand binding assay according to Sunahara et al in Nature (1991) 350:614. The experimental protocol is as follows. Cell membrane homogenates (120 µg protein) are incubated for 60 minutes at 22°C with 7.5 nM [^3H]dopamine in the absence or presence of the test compound in a buffer containing 20 mM Tris-HCl (pH 7.4), 5 mM MgCl2, 0.8 mM DTT, 0.3 mM ascorbic acid and 0.1 mM pyrocatechol. Nonspecific binding is determined in the presence of 10 µM SCH 23390. Following incubation, the samples are filtered rapidly under vacuum through glass fiber filters (GF/B, Packard) 55re-soaked with 0.3% PEI and rinsed several times with ice-cold 50 mM Tris-HCl using a 96-sample cell harvester (Unifilter, Packard). The filters are dried then counted for radioactivity in a scintillation counter (Topcount, Packard) using a scintillation cocktail (Microscint 0, Packard). The results are expressed as a percent inhibition of the control radioligand specific binding. The standard reference compound is dopamine, which is tested in each experiment at several concentrations to obtain a competition curve from which its IC50 is calculated, and from which the % inhibition at 1 µM as indicated in the following table is obtained.

[6] = target: T3, Human dopamine D5 receptor (Homo sapiens, UniProt P21918); assay: Human dopamine D5 receptor (antagonist radioligand) binding assay; conditions: test compound at 1 µmole; 0.3 nM [3H]SCH 23390; transfected GH4 cells; inhibition of control radioligand specific binding; one single experiment
T3 construct: expressed in transfected cells; host or cells: GH4 cells (membrane homogenates)
T3 sequence (P21918 whole entry): as above
Excerpt: as §1
Human dopamine D5 receptor (antagonist radioligand):
The purpose is to evaluate the affinity of compounds for the human dopamine […] in transfected GH4 cells determined in a radioligand binding assay according to Sunahara et al in Nature (1991) 350:614. The experimental protocol is as follows. Cell membrane homogenates (20 µg protein) are incubated for 60 minutes at 22°C with 0.3 nM [^3H]SCH 23390 in the absence or presence of the test compound in a buffer containing 50 mM Tris-HCl (pH 7.4), 120 mM NaCl, 5 mM KCI, 5 mM MgCl2 and 1 mM EDTA. Nonspecific binding is determined in the presence of 10 µM SCH 23390. […] The filters are dried then counted for radioactivity in a scintillation counter (Topcount, Packard) using a scintillation cocktail (Microscint 0, Packard). The results are expressed as a percent inhibition of the control radioligand specific binding. […]

[7] = relative to morphine; background statement; cited from earlier work

human muscle-type nicotinic receptor, sequence (P02708 21-457): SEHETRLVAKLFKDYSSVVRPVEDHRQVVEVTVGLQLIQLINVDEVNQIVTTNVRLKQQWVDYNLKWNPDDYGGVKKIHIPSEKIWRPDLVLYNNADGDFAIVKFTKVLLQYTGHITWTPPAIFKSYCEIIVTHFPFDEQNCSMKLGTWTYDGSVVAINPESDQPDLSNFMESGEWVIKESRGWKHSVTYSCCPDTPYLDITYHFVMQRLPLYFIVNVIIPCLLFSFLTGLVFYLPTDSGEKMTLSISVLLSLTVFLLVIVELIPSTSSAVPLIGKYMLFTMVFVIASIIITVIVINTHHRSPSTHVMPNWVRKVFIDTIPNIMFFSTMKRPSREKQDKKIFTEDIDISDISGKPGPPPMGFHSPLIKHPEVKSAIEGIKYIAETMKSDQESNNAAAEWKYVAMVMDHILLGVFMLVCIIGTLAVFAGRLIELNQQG
human muscle-type nicotinic receptor, sequence (P07510 23-517): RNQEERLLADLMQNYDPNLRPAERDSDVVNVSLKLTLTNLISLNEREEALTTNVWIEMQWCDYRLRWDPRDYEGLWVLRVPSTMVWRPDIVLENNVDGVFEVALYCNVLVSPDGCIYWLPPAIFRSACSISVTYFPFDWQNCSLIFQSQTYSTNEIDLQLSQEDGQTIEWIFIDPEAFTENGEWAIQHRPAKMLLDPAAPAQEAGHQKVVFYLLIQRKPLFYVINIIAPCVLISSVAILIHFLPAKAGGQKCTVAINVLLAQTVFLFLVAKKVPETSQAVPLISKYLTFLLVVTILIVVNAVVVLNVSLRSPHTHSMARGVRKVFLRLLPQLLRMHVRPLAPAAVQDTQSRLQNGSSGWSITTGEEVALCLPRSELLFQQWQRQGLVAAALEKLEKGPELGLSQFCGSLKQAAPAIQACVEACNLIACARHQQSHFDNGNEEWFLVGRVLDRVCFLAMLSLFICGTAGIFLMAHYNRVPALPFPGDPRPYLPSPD
human muscle-type nicotinic receptor, sequence (P11230 24-501, further chain): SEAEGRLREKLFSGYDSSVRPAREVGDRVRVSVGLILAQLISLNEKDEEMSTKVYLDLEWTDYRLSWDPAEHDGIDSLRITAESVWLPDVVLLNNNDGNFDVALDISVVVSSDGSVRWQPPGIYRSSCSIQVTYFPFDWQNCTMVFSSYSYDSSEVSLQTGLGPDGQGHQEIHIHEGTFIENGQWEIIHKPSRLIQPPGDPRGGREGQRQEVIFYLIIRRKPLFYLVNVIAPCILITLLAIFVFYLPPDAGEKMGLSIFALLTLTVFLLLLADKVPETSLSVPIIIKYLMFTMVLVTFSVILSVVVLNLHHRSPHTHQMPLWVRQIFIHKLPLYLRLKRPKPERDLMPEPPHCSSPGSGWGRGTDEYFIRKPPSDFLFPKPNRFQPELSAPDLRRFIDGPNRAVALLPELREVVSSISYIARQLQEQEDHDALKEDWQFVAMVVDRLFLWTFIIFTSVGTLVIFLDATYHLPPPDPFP
human muscle-type nicotinic receptor, sequence (Q07001 22-517): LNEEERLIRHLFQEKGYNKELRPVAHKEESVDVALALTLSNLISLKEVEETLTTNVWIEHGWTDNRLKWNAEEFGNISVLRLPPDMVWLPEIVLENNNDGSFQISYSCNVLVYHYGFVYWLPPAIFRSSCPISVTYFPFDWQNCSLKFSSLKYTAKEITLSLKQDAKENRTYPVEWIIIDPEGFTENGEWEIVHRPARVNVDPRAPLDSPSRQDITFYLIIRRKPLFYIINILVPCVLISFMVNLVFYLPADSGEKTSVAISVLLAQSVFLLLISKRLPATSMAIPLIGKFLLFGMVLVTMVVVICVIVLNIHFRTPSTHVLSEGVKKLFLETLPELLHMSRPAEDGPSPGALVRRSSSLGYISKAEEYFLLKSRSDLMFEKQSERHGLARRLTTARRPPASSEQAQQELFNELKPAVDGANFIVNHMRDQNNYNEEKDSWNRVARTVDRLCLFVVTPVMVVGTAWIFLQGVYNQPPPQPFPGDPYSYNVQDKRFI

## CCN1CCC2CC1(C(O)c1cccnc1)C2 (stereo not drawn) [Comp.19a]
[1]
  inhibition at 0.0005 µM: 33%
[2]
  inhibition at 50 pM: 3%
[3]
  inhibition at 1 µM: 24%
[4]
  inhibition at 1 µM: 9%
[5]
  inhibition at 1 µM: -2%

## NCC12CC(CCN1Cc1ccccn1)C2 [Comp.20]
[1]
  inhibition at 0.0005 µM: 32%
[2]
  inhibition at 50 pM: 12%
[3]
  inhibition at 1 µM: 11%
[6]
  inhibition at 1 µM: 31%
[4]
  inhibition at 1 µM: -3%
[5]
  inhibition at 1 µM: 6%

## Clc1ccc(C2CC3CCC2N3)cn1 (stereo not drawn) [epibatidine]
[7]
  analgesic potency, higher than that of morphine: about 200 fold

## OC(c1cccnc1)C12CC(CCN1)C2 (stereo not drawn) [Comp.11]
[1]
  inhibition at 0.0005 µM: 17%
[2]
  inhibition at 50 pM: -1%

## CCN1CCC2CC1(C(=O)c1ccc(Cl)nc1)C2 [Comp.9m]
[1]
  inhibition at 0.0005 µM: -8%
[2]
  inhibition at 50 pM: -1%
[3]
  inhibition at 1 µM: 4%
[5]
  inhibition at 1 µM: -13%
